According to patent publication US8912186B2, “Allosteric protein kinase modulators” (Universitaet des Saarlandes, priority 2008, dated 2014):

What was measured:
Type in all cases: biochemical
PKBβ = PKBβ (Homo sapiens, UniProt P31751); assay: cell-free kinase activity assay; settings: DMSO control set 100%
PKCζ = biological target: T1, PKCζ (Homo sapiens, UniProt Q05513); assay: cell-free kinase activity assay; settings: DMSO control set 100%; for remaining activity at 50 µM / remaining activity at 200 µM: read-out: percent of catalytic activity of the Kinase in the presence of compound as compared to the solvent control (DMSO): PKCζ
T1 sequence (Q05513 1-592): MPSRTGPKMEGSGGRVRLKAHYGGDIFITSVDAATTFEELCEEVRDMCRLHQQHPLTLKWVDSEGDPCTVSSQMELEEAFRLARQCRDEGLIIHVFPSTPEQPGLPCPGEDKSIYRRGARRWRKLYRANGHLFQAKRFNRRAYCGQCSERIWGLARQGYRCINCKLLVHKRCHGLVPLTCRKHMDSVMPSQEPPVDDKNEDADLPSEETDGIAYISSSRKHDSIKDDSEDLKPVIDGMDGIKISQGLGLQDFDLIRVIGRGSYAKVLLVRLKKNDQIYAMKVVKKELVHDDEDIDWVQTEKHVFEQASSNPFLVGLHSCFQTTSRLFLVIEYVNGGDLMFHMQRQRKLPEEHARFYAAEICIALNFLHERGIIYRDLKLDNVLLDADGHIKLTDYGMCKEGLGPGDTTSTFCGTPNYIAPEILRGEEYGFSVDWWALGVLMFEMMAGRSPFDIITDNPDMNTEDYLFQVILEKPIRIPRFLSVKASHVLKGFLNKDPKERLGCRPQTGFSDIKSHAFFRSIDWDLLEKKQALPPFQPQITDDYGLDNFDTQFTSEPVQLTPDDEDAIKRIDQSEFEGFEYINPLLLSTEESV

PRK2 = PRK2 (Homo sapiens, UniProt Q16513); assay: cell-free kinase activity assay; settings: DMSO control set 100%
S6K = S6K (Homo sapiens, UniProt P23443); assay: cell-free kinase activity assay; settings: DMSO control set 100%; for remaining activity at 200 µM: 200 μM compound
SGK = biological target: T2, SGK (Homo sapiens, UniProt O00141); assay: cell-free kinase activity assay; settings: DMSO control set 100%; for remaining activity at 200 µM: read-out: percent of catalytic activity of the Kinase in the presence of compound as compared to the solvent control (DMSO): SGK
T2 sequence (O00141 1-431): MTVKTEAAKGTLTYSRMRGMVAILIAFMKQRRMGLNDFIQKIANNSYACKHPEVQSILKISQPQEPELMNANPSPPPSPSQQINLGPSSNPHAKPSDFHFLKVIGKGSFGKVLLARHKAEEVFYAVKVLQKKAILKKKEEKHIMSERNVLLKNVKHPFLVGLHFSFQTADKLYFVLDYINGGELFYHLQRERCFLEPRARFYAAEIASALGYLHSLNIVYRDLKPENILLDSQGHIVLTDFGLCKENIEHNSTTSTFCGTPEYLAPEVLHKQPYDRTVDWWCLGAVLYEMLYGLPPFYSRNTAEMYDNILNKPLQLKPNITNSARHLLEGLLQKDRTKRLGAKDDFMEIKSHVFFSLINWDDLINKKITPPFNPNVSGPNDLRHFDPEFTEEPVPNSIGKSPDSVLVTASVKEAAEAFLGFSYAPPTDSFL

PDK1 = biological target: T3, PDK1 (Homo sapiens, UniProt O15530); assay: cell-free kinase activity assay (ATPgamma[32P], T308tide substrate); settings: for percent of catalytic activity of the Kinase in the presence of compound as compared to the solvent control (DMSO): PDK1 / activity at 50 µM / activity at 200 µM: DMSO control set 100%; for max. activation of PDK1 (fold): maximum activation achievable, compared to the basal activity of PDK1; for activity at 50 µM / activity at 200 µM: read-out: percent of catalytic activity of the Kinase in the presence of compound as compared to the solvent control (DMSO): PDK1
T3 construct: GST
T3 sequence (O15530 1-556): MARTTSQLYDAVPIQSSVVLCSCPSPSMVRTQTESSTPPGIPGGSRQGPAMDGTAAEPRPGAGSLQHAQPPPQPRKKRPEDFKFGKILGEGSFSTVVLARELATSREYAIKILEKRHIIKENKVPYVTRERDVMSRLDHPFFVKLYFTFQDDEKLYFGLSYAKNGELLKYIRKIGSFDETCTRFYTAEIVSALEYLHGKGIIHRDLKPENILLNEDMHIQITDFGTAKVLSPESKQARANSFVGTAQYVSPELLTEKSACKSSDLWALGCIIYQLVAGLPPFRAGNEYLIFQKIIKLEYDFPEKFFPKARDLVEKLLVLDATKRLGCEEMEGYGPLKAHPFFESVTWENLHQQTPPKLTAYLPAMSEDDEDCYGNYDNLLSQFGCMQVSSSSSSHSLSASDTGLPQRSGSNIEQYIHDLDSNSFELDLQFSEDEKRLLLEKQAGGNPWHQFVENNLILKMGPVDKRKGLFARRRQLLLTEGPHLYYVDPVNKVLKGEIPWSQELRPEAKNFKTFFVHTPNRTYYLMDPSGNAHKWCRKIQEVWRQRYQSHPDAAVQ
Description: Principle of the cell-free kinase activity assay: In general, the activity of the compounds as protein kinase inhibitors or activators may be assayed in vitro (cell free assay is meant here), in vivo or in a cell line. In vitro assays include assays that determine inhibition or activation of either the phosphorylation activity or ATPase activity of the activated protein kinase. Alternate in vitro assays quantitate the ability of the inhibitor to bind to the protein kinase. Compound binding may be measured by radiolabelling the compound prior to binding, isolating the inhibitor or activator/protein kinase complex and determining the amount of radiolabel bound. Alternatively, inhibitor or activator binding may be determined by running a competition experiment where new compounds are incubated with the protein kinase bound to known radioligands. Newer methods comprise fluorescence polarisation assays and surface plasmon resonance dependent techniques. […] The activity and modulation of activity is measured using a standard ATPgamma[^32P] assay as described earlier. […] The concentration of T308tide is 1 mM and the amount of PDK1 used is 200 ng. Reactions are carried out at room temperature. Reaction is started by addition of ATP-Mg mix and stopped with phosphoric acid after 30 min. Stopped reactions were spotted on to phosphocellulose paper (P81, Whatman) and washed. After drying, the radioactivity associated to the band was quantified.

PKA = PKA (Homo sapiens, UniProt P17612); assay: cell-free kinase activity assay; settings: DMSO control set 100%
[1] = 200 μM compound, read-out: percent of catalytic activity of the Kinase in the presence of compound as compared to the solvent control (DMSO): PKBβ
[2] = read-out: percent of catalytic activity of the Kinase in the presence of compound as compared to the solvent control (DMSO): S6K
[3] = concentration of the compound required to activate half maximally, n.e.: no effect

Chain of S6K (P23443 whole entry): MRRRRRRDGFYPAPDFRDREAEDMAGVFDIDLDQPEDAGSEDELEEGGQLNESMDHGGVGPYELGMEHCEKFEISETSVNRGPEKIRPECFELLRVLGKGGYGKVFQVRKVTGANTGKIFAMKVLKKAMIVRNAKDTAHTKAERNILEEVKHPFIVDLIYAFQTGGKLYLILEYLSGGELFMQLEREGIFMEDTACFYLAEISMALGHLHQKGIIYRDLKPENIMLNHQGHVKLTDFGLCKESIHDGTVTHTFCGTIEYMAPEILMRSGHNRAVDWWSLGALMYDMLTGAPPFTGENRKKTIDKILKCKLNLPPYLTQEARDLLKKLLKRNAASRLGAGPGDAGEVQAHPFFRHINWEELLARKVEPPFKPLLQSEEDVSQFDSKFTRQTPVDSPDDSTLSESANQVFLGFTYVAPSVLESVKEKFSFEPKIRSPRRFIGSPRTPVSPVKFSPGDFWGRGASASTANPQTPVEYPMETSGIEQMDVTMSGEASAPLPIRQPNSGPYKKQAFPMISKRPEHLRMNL
Chain of PRK2 (Q16513 whole entry, species assumed): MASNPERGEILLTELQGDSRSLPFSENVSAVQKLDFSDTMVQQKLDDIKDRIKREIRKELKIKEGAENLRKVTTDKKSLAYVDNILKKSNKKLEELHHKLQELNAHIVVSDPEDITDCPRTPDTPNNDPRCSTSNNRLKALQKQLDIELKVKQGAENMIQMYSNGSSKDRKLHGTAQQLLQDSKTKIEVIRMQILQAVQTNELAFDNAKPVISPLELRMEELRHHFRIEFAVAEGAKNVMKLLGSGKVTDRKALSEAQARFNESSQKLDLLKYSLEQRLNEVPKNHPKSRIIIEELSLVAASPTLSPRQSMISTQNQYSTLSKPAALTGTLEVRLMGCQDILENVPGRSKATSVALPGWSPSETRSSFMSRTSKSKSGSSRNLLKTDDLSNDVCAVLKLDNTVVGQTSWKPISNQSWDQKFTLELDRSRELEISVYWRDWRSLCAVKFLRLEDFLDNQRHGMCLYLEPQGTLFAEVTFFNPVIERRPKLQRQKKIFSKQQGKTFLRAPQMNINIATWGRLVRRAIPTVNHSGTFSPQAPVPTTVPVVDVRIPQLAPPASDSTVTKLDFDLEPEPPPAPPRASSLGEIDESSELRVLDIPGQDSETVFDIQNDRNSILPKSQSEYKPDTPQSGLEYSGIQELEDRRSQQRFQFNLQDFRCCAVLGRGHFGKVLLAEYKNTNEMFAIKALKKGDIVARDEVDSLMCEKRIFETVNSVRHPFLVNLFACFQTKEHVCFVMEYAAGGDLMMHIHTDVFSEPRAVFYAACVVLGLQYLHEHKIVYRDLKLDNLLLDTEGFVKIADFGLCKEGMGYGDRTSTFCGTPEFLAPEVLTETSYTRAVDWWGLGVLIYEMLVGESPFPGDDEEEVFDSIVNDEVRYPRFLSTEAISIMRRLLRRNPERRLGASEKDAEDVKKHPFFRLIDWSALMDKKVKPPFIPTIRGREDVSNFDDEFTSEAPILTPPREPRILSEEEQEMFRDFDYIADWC
Chain of PKBβ (P31751 whole entry, species assumed): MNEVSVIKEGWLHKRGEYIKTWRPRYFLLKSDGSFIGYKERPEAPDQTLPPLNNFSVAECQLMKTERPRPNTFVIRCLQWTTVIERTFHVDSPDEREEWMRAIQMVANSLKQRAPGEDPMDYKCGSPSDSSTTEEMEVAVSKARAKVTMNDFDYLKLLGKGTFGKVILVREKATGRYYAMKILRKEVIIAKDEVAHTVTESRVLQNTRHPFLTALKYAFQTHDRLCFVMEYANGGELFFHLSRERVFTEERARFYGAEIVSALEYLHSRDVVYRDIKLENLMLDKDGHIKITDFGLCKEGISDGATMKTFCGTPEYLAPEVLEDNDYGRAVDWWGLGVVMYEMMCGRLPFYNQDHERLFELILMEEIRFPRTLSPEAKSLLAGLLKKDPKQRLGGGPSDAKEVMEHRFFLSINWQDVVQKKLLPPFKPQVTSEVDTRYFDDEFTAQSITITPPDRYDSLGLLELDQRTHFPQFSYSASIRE

Row | SMILES | remaining activity at 200 µM (PKBβ; [1]) | remaining activity at 50 µM (PKCζ; 50 μM compound) | remaining activity at 200 µM (PKCζ; 200 μM compound) | percent of catalytic activity of the Kinase in the presence of compound as compared to the solvent control (DMSO): PRK2 (PRK2; 50 μM compound) | percent of catalytic activity of the Kinase in the presence of compound as compared to the solvent control (DMSO): PRK2 (PRK2; 200 μM compound) | remaining activity at 200 µM (S6K; [2]) | percent of catalytic activity of the Kinase in the presence of compound as compared to the solvent control (DMSO): SGK (SGK; 50 μM compound) | remaining activity at 200 µM (SGK; 200 μM compound) | max. activation of PDK1 (fold) (PDK1; n.e.: no effect) | percent of catalytic activity of the Kinase in the presence of compound as compared to the solvent control (DMSO): PKA (PKA; 50 μM compound) | percent of catalytic activity of the Kinase in the presence of compound as compared to the solvent control (DMSO): PKA (PKA; 200 μM compound) | percent of catalytic activity of the Kinase in the presence of compound as compared to the solvent control (DMSO): PKBβ (PKBβ; 50 μM compound) | percent of catalytic activity of the Kinase in the presence of compound as compared to the solvent control (DMSO): PKBβ (PKBβ; 200 μM compound) | percent of catalytic activity of the Kinase in the presence of compound as compared to the solvent control (DMSO): S6K (S6K; 50 μM compound) | activity at 50 µM (PDK1; 50 μM compound) | activity at 200 µM (PDK1; 200 μM compound) | percent of catalytic activity of the Kinase in the presence of compound as compared to the solvent control (DMSO): PKCζ (PKCζ; 50 μM compound) | further results
1 | O=C(O)/C=C(/c1ccccc1)c1cc2cc(Cl)ccc2s1 [PS 118, (Z)-3-(5-Chloro-2-benzothiophenyl)-3-phenylacrylic acid] | 25% | 10 to 20% | 0% | no effect | no effect | 25% | no effect | ~20% | n.e. | no effect | no effect | – | – | – | – | – | – | remaining activity at 50 µM (PKBβ; 50 μM compound, read-out: percent of catalytic activity of the Kinase in the presence of compound as compared to the solvent control (DMSO): PKBβ): 90%; remaining activity at 50 µM (S6K; 50 μM compound, read-out: percent of catalytic activity of the Kinase in the presence of compound as compared to the solvent control (DMSO): S6K): 85%; percent of catalytic activity of the Kinase in the presence of compound as compared to the solvent control (DMSO): PDK1 (PDK1; 50 μM compound): no effect; percent of catalytic activity of the Kinase in the presence of compound as compared to the solvent control (DMSO): PDK1 (PDK1; 200 μM compound): no effect; AC50 PDK1 (μM) (PDK1; [3]): n.e.
2 | O=C(O)CC(CC(=O)N1Cc2ccc(Cl)cc2C1)c1ccc(Cl)cc1 (centres unmarked) [PS 141] | – | 80% | 30 to 40% | no effect | no effect | ~80% | no effect | 70 to 80% | – | no effect | no effect | no effect | no effect | no effect | 300% | 400% | – | –
3 | O=C(O)CC(C(=O)N1CCc2ccccc2C1)c1ccc(Cl)cc1 (centres unmarked) [PS 152] | – | – | – | no effect | no effect | ~80% | no effect | – | – | no effect | no effect | no effect | no effect | no effect | 240% | 310% | no effect | percent of catalytic activity of the Kinase in the presence of compound as compared to the solvent control (DMSO): PKCζ (PKCζ; 200 μM compound): no effect; percent of catalytic activity of the Kinase in the presence of compound as compared to the solvent control (DMSO): SGK (SGK; 200 μM compound): no effect
4 | O=C(O)CC(Cc1nc2cc(Cl)c(Cl)cc2[nH]1)c1ccccc1 (centres unmarked) [PS 163, 4-(5,6-Dichloro-2-benzimidazolyl)-3-phenylbutanoic acid] | – | – | 50% | no effect | no effect | ~50% | no effect | ~60% | – | no effect | no effect | no effect | no effect | no effect | ~250% | > 250% | no effect | –
5 | O=C(O)/C=C(/CCc1ccc(C(F)(F)F)cc1)c1ccccc1 [PS-T5, (Z)-3-Phenyl-5-[4-(trifluoromethyl)phenyl]pent-2-enoic acid] | ~80% | ~0% | ~0% | no effect | no effect | ~60% | weak inhib. | ~20% | 4.7 fold | no effect | – | no effect | – | no effect | > 250% | > 250% | – | AC50 (PDK1; [3]): 13.8 µM; remaining activity at 200 µM (PKA; 200 μM compound, read-out: percent of catalytic activity of the Kinase in the presence of compound as compared to the solvent control (DMSO): PKA): ~60%
